Earlier results in PubChem BioAssay AID1259409 (Chemical Carcinogenesis Research Information System (CCRIS), 2018).
“And” between values parts separate entries of the source, which are not always exact repeats. Equal entries are not always repeated.

System: rodent chemically induced tumor inhibition, incidence and multiplicity
Assay: CCRIS tumor inhibitor studies
Settings: Promoter: NONE USED

## N#C[Se]Cc1ccccc1
Carcinogen: 7,12-DIMETHYLBENZ[A]ANTHRACENE, 57-97-6, Dose [Inhibitor]: 0, 1 PPM (AS SELENIUM) IN DIET BEGINNING 2 WK PRIOR TO CARCINOGEN DOSE AND CONTINUING FOR DURATION OF STUDY (STUDY DURAT, Route [Inhibitor]: ORAL, Species: RAT, Strain/Sex: SPRAGUE-DAWLEY/FEMALE, Target Tissue: Type of Lesion: MAMMARY GLAND: ADENOCARCINOMA, Dose [Carcinogen]: 10 MG ONCE AT 55 D OF AGE
  tumour outcome (control, treated, inhibition, significance): 88%, 56%, 36%, p<0.05
Carcinogen: 7,12-DIMETHYLBENZ[A]ANTHRACENE, 57-97-6, Dose [Inhibitor]: 0, 2 PPM (AS SELENIUM) IN DIET BEGINNING 2 WK PRIOR TO CARCINOGEN DOSE AND CONTINUING FOR DURATION OF STUDY (STUDY DURAT, Route [Inhibitor]: ORAL, Species: RAT, Strain/Sex: SPRAGUE-DAWLEY/FEMALE, Target Tissue: Type of Lesion: MAMMARY GLAND: ADENOCARCINOMA, Dose [Carcinogen]: 10 MG ONCE AT 55 D OF AGE
  tumour outcome (control, treated, inhibition, significance): 88%, 40%, 55%, p<0.05
Carcinogen: 7,12-DIMETHYLBENZ[A]ANTHRACENE, 57-97-6, Dose [Inhibitor]: 0, 3 PPM (AS SELENIUM) IN DIET BEGINNING 2 WK PRIOR TO CARCINOGEN DOSE AND CONTINUING FOR DURATION OF STUDY (STUDY DURAT, Route [Inhibitor]: ORAL, Species: RAT, Strain/Sex: SPRAGUE-DAWLEY/FEMALE, Target Tissue: Type of Lesion: MAMMARY GLAND: ADENOCARCINOMA, Dose [Carcinogen]: 10 MG ONCE AT 55 D OF AGE
  tumour outcome (control, treated, inhibition, significance): 88%, 40%, 55%, p<0.05
Carcinogen: 7,12-DIMETHYLBENZ[A]ANTHRACENE, 57-97-6, Dose [Inhibitor]: 0, 25 PPM IN DIET BEGINNING 2 WK PRIOR TO CARCINOGEN DOSE AND CONTINUING FOR 1 WK POST CARCINOGEN DOSE (STUDY DURATION:, Route [Inhibitor]: ORAL, Species: RAT, Strain/Sex: SPRAGUE-DAWLEY/FEMALE, Target Tissue: Type of Lesion: MAMMARY GLAND: TUMOR, Dose [Carcinogen]: 10 MG IN 1 ML OLIVE OIL ONCE AT 7 WK OF AGE
  tumour outcome (control, treated, inhibition, significance): 19/21 (91%), 13/21 (62%), 32%, p<0.05
Carcinogen: BENZO[A]PYRENE, 50-32-8, Dose [Inhibitor]: 0, 0.045 UMOL/G DIET BEGINNING 1 WK PRIOR TO CARCINOGEN TREATMENT AND CONTINUING FOR 1 WK POST CARCINOGEN TREATMENT FOLL, Route [Inhibitor]: ORAL, Species: MOUSE, Strain/Sex: CD-1/FEMALE, Target Tissue: Type of Lesion: FORESTOMACH: PAPILLOMA, Dose [Carcinogen]: 1 MG IN 0.2 ML CORN OIL 2/WK FOR 4 WK
  tumour outcome (control, treated, inhibition, significance): 85%, 79%, 7%, not significant

## CC1=CCC(C(C)(C)O)CC1O (stereo not given)
Carcinogen: 7,12-DIMETHYLBENZ[A]ANTHRACENE, 57-97-6, Dose [Inhibitor]: 0, 1% IN DIET FOR 3 WK BEGINNING 2 WK PRIOR TO CARCINOGEN DOSE (STUDY DURATION: 20 WK), Route [Inhibitor]: ORAL, Species: RAT, Strain/Sex: WISTAR/FEMALE, Target Tissue: Type of Lesion: MAMMARY GLAND: CARCINOMA, Dose [Carcinogen]: 50 MG/KG IN SESAME OIL ONCE
  tumour outcome (control, treated, inhibition, significance): 80%, 52%, 35%, not calculated and 98%, 84%, 14%, not significant

## CCCC(=O)OC[C@@H](OC(=O)CCC)[C@@H](OC(=O)CCC)[C@H](Cn1c2nc(=O)[nH]c(=O)c-2nc2cc(C)c(C)cc21)OC(=O)CCC
Carcinogen: 3-METHYLCHOLANTHRENE, 56-49-5, Dose [Inhibitor]: 0.1% IN 0.05 ML ACETONE 2 HR AFTER APPLICATION OF THE CARCINOGEN THEN 1/2 D (STUDY DURATION: 15 WK), Route [Inhibitor]: DERMAL, Species: MOUSE, Strain/Sex: DDY/FEMALE, Target Tissue: Type of Lesion: SKIN: PAPILLOMA, Dose [Carcinogen]: 0.3% IN 0.05 ML ACETONE 2/WK
  tumour outcome (control, treated, inhibition, significance): 7/50 (14%), 2/49 (4%), 71%, not calculated
Carcinogen: 3-METHYLCHOLANTHRENE, 56-49-5, Dose [Inhibitor]: 0.1% IN 0.05 ML ACETONE 2 HR AFTER APPLICATION OF THE CARCINOGEN THEN 1/2 D (STUDY DURATION: 15 WK), Route [Inhibitor]: DERMAL, Species: MOUSE, Strain/Sex: DDY/FEMALE, Target Tissue: Type of Lesion: SKIN: SQUAMOUS CELL CARCINOMA, Dose [Carcinogen]: 0.3% IN 0.05 ML ACETONE 2/WK
  tumour outcome (control, treated, inhibition, significance): 34/50 (68%), 20/49 (41%), 40%, p<0.01

## CC1=C(O)C(=O)CO1
Carcinogen: BENZO[A]PYRENE, 50-32-8, Dose [Inhibitor]: 0, 25 PPM IN DIET FOR 17 WK BEGINNING 1 WK POST CARCINOGEN TREATMENT (STUDY DURATION: 21 WK), Route [Inhibitor]: ORAL, Species: MOUSE, Strain/Sex: ICR/FEMALE, Target Tissue: Type of Lesion: FORESTOMACH: TUMOR, Dose [Carcinogen]: 1.5 MG IN 0.2 ML CORN OIL 1/WK FOR 4 WK
  tumour outcome (control, treated, inhibition, significance): 90%, 80%, 11%, not significant
Carcinogen: BENZO[A]PYRENE, 50-32-8, Dose [Inhibitor]: 0, 50 PPM IN DIET FOR 17 WK BEGINNING 1 WK POST CARCINOGEN TREATMENT (STUDY DURATION: 21 WK), Route [Inhibitor]: ORAL, Species: MOUSE, Strain/Sex: ICR/FEMALE, Target Tissue: Type of Lesion: FORESTOMACH: TUMOR, Dose [Carcinogen]: 1.5 MG IN 0.2 ML CORN OIL 1/WK FOR 4 WK
  tumour outcome (control, treated, inhibition, significance): 90%, 85%, 6%, not significant
Carcinogen: BENZO[A]PYRENE, 50-32-8, Dose [Inhibitor]: 0, 75 PPM IN DIET FOR 17 WK BEGINNING 1 WK POST CARCINOGEN TREATMENT (STUDY DURATION: 21 WK), Route [Inhibitor]: ORAL, Species: MOUSE, Strain/Sex: ICR/FEMALE, Target Tissue: Type of Lesion: FORESTOMACH: TUMOR, Dose [Carcinogen]: 1.5 MG IN 0.2 ML CORN OIL 1/WK FOR 4 WK
  tumour outcome (control, treated, inhibition, significance): 90%, 80%, 11%, not significant

## CO[C@@]12[C@H](COC(N)=O)C3=C(C(=O)C(C)=C(N)C3=O)N1C[C@@H]1N[C@@H]12
Carcinogen: N-BUTYL-N-(4-HYDROXYBUTYL)NITROSAMINE, 3817-11-6, Dose [Inhibitor]: 0.5 ML (2000 UG/ML) INSTILLED TRANSURETHRALLY 2/WK FOR 2 WK POST CARCINOGEN DOSE (STUDY DURATION: 20 WK), Route [Inhibitor]: INTRAVESICAL, Species: RAT, Strain/Sex: WISTAR/MALE, Target Tissue: Type of Lesion: BLADDER: CARCINOMA, Dose [Carcinogen]: 0.05% IN DRINKING WATER FOR 12 WK
  tumour outcome (control, treated, inhibition, significance): 14/20 (70%), 8/10 (80%), -14%, not calculated
Carcinogen: N-BUTYL-N-(4-HYDROXYBUTYL)NITROSAMINE, 3817-11-6, Dose [Inhibitor]: 0.5 ML (2000 UG/ML) INSTILLED TRANSURETHRALLY 2/WK FOR 2 WK POST CARCINOGEN DOSE (STUDY DURATION: 20 WK), Route [Inhibitor]: INTRAVESICAL, Species: RAT, Strain/Sex: WISTAR/MALE, Target Tissue: Type of Lesion: BLADDER: PAPILLOMA, Dose [Carcinogen]: 0.05% IN DRINKING WATER FOR 12 WK
  tumour outcome (control, treated, inhibition, significance): 6/20 (30%), 2/10 (20%), 33%, not calculated
Carcinogen: N-BUTYL-N-(4-HYDROXYBUTYL)NITROSAMINE, 3817-11-6, Dose [Inhibitor]: 2000 UG/ML INSTILLED CONTINUOUSLY FOR 2 WK POST CARCINOGEN DOSE (STUDY DURATION: 12 WK), Route [Inhibitor]: INTRAVESICAL, Species: RAT, Strain/Sex: WISTAR/MALE, Target Tissue: Type of Lesion: BLADDER: CARCINOMA, Dose [Carcinogen]: 0.05% IN DRINKING WATER FOR 12 WK
  tumour outcome (control, treated, inhibition, significance): 14/20 (70%), 2/10 (20%), 71%, not calculated
Carcinogen: N-BUTYL-N-(4-HYDROXYBUTYL)NITROSAMINE, 3817-11-6, Dose [Inhibitor]: 2000 UG/ML INSTILLED CONTINUOUSLY FOR 2 WK POST CARCINOGEN DOSE (STUDY DURATION: 12 WK), Route [Inhibitor]: INTRAVESICAL, Species: RAT, Strain/Sex: WISTAR/MALE, Target Tissue: Type of Lesion: BLADDER: PAPILLOMA, Dose [Carcinogen]: 0.05% IN DRINKING WATER FOR 12 WK
  tumour outcome (control, treated, inhibition, significance): 6/20 (30%), 2/10 (20%), 33%, not calculated
